Experimental data published in PubChem BioAssay AID1918999 (Molecular Pharmacology Branch, DTP, NCI, 2023).
pIC50: −log10 of the molar value. Values joined by “and” are separate entries in the source; they are usually repeats but may differ in a detail not shown here. Identical values can stand only once.

Tested on: 556581-035-R-J1-PDC complex spheroid growth
Assay: Anticancer human tumor 556581-035-R-J1-PDC patient-derived ovarian carcinoma cell line growth inhibition [AhR]
Details: for viability, T/C: stronger effect = lower value; active means viability on the fitted dose curve at most 10% of control; inactive means the rest
Summary of the method: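 Agents were dosed in half-log steps down from roughly clinical Cmax, or from 10 microM where Cmax was unknown, alone and with AhR antagonists. Read-out: percent test/control growth of tumor spheroids containing HUVEC and MSC stromal cells.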

[1] = curve of first compound, second compound 0.1 µM
[2] = curve of first compound, second compound 0.316 µM
[3] = curve of first compound, second compound 1 µM
[4] = curve of first compound, second compound 3.16 µM
[5] = curve of first compound, second compound 10 µM
[6] = second compound 0.1 µM, first compound 0.0316 µM
[7] = second compound 0.1 µM, first compound 0.1 µM
[8] = second compound 0.1 µM, first compound 0.316 µM
[9] = second compound 0.1 µM, first compound 1 µM
[10] = second compound 0.1 µM, first compound 3.16 µM
[11] = second compound 0.1 µM, first compound 10 µM
[12] = second compound 0.316 µM, first compound 0.0316 µM
[13] = second compound 0.316 µM, first compound 0.1 µM
[14] = second compound 0.316 µM, first compound 0.316 µM
[15] = second compound 0.316 µM, first compound 1 µM
[16] = second compound 0.316 µM, first compound 3.16 µM
[17] = second compound 0.316 µM, first compound 10 µM
[18] = second compound 1 µM, first compound 0.0316 µM
[19] = second compound 1 µM, first compound 0.1 µM
[20] = second compound 1 µM, first compound 0.316 µM
[21] = second compound 1 µM, first compound 1 µM
[22] = second compound 1 µM, first compound 3.16 µM
[23] = second compound 1 µM, first compound 10 µM
[24] = second compound 3.16 µM, first compound 0.0316 µM
[25] = second compound 3.16 µM, first compound 0.1 µM
[26] = second compound 3.16 µM, first compound 0.316 µM
[27] = second compound 3.16 µM, first compound 1 µM
[28] = second compound 3.16 µM, first compound 3.16 µM
[29] = second compound 3.16 µM, first compound 10 µM
[30] = second compound 10 µM, first compound 0.0316 µM
[31] = second compound 10 µM, first compound 0.1 µM
[32] = second compound 10 µM, first compound 0.316 µM
[33] = second compound 10 µM, first compound 1 µM
[34] = second compound 10 µM, first compound 3.16 µM
[35] = second compound 10 µM, first compound 10 µM
[36] = second compound 0.1 µM, first compound 0.00949 µM
[37] = second compound 0.1 µM, first compound 0.03 µM
[38] = second compound 0.1 µM, first compound 0.0949 µM
[39] = second compound 0.1 µM, first compound 0.3 µM
[40] = second compound 0.316 µM, first compound 0.00949 µM
[41] = second compound 0.316 µM, first compound 0.03 µM
[42] = second compound 0.316 µM, first compound 0.0949 µM
[43] = second compound 0.316 µM, first compound 0.3 µM
[44] = second compound 1 µM, first compound 0.00949 µM
[45] = second compound 1 µM, first compound 0.03 µM
[46] = second compound 1 µM, first compound 0.0949 µM
[47] = second compound 1 µM, first compound 0.3 µM
[48] = second compound 3.16 µM, first compound 0.00949 µM
[49] = second compound 3.16 µM, first compound 0.03 µM
[50] = second compound 3.16 µM, first compound 0.0949 µM
[51] = second compound 3.16 µM, first compound 0.3 µM
[52] = second compound 10 µM, first compound 0.00949 µM
[53] = second compound 10 µM, first compound 0.03 µM
[54] = second compound 10 µM, first compound 0.0949 µM
[55] = second compound 10 µM, first compound 0.3 µM
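Wherever viability, T/C is given: compound exposure lasted 7 days; 100% = DMSO vehicle control growth.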

CC1COCCN1c1cc(C2(S(C)(=N)=O)CC2)nc(-c2ccnc3[nH]ccc23)n1 (stereo unspecified) + Cc1cncc(-c2nc(NCCc3c[nH]c4ccccc34)c3ncn(C(C)C)c3n2)c1
inactive: viability, T/C [6] 103% | viability, T/C [7] 104% | viability, T/C [8] 92.2% | viability, T/C [9] 93.3% | viability, T/C [10] 73.5% | viability, T/C [11] 67.4% | viability, T/C [12] 99% | viability, T/C [13] 97.9% | viability, T/C [14] 99.4% | viability, T/C [15] 95.4% | viability, T/C [16] 82.5% | viability, T/C [17] 68.9% | viability, T/C [18] 101% | viability, T/C [19] 106% | viability, T/C [20] 102% | viability, T/C [21] 94.7% | viability, T/C [22] 85% | viability, T/C [23] 67.3% | viability, T/C [24] 111% | viability, T/C [25] 103% | viability, T/C [26] 92.2% | viability, T/C [27] 99.2% | viability, T/C [28] 74.2% | viability, T/C [29] 78.2% | viability, T/C [30] 80.4% | viability, T/C [31] 90.1% | viability, T/C [32] 80.7% | viability, T/C [33] 90.9% | viability, T/C [34] 79.5% | viability, T/C [35] 63.8%
< 5.00: pIC50 [1] | pIC50 [2] | pIC50 [3] | pIC50 [4] | pIC50 [5]

Nc1ncn(C2CC(O)C(CO)S2)c(=O)n1 (stereo unspecified) + Cc1ccccc1N=Nc1ccc(NC(=O)c2ccnn2C)c(C)c1
inactive: viability, T/C (second compound 0.1 µM, first compound 0.000949 µM) 105% | viability, T/C (second compound 0.1 µM, first compound 0.003 µM) 106% | viability, T/C [36] 115% | viability, T/C [37] 97% | viability, T/C [38] 77.8% | viability, T/C [39] 69.5% | viability, T/C (second compound 0.316 µM, first compound 0.000949 µM) 93.6% | viability, T/C (second compound 0.316 µM, first compound 0.003 µM) 111% | viability, T/C [40] 100% | viability, T/C [41] 95.9% | viability, T/C [42] 78.8% | viability, T/C [43] 63.4% | viability, T/C (second compound 1 µM, first compound 0.000949 µM) 99.5% | viability, T/C (second compound 1 µM, first compound 0.003 µM) 106% | viability, T/C [44] 99.9% | viability, T/C [45] 91.5% | viability, T/C [46] 102% | viability, T/C [47] 64.5% | viability, T/C (second compound 3.16 µM, first compound 0.000949 µM) 87.1% | viability, T/C (second compound 3.16 µM, first compound 0.003 µM) 101% | viability, T/C [48] 88.1% | viability, T/C [49] 90.6% | viability, T/C [50] 76.8% | viability, T/C [51] 65.7% | viability, T/C (second compound 10 µM, first compound 0.000949 µM) 90% | viability, T/C (second compound 10 µM, first compound 0.003 µM) 95.2% | viability, T/C [52] 84.1% | viability, T/C [53] 80.1% | viability, T/C [54] 83.1% | viability, T/C [55] 68%
< 6.52: pIC50 [1] | pIC50 [2] | pIC50 [3] | pIC50 [4] | pIC50 [5]

Nc1ccccc1NC(=O)c1ccc(CNC(=O)OCc2cccnc2)cc1 + CC(CO)NC(=O)c1cc(-c2ccc(Cl)cc2)nn(-c2cnn(C)c2)c1=O
5.84: pIC50 [4]
5.81: pIC50 [5]
inactive: viability, T/C [6] 96.9% | viability, T/C [7] 102% | viability, T/C [8] 78% | viability, T/C [9] 53.2% | viability, T/C [10] 36.9% | viability, T/C [11] 17.5% | viability, T/C [12] 107% | viability, T/C [13] 91% | viability, T/C [14] 87.1% | viability, T/C [15] 58.7% | viability, T/C [16] 34.9% | viability, T/C [17] 15.4% | viability, T/C [18] 118% | viability, T/C [19] 100% | viability, T/C [20] 77.3% | viability, T/C [21] 60.8% | viability, T/C [22] 38.6% | viability, T/C [23] 17.8% | viability, T/C [24] 105% | viability, T/C [25] 102% | viability, T/C [26] 84.8% | viability, T/C [27] 58% | viability, T/C [28] 33.2% | viability, T/C [29] 20.6% | viability, T/C [30] 106% | viability, T/C [31] 103% | viability, T/C [32] 88.6% | viability, T/C [33] 62.8% | viability, T/C [34] 30.4% | viability, T/C [35] 12.6%
5.78: pIC50 [3]
5.80: pIC50 [2]
5.87: pIC50 [1]

CC1(C)CCC(CN2CCN(c3ccc(C(=O)NS(=O)(=O)c4ccc(NCC5CCOCC5)c([N+](=O)[O-])c4)c(Oc4cnc5[nH]ccc5c4)c3)CC2)=C(c2ccc(Cl)cc2)C1
< 5.00: pIC50 (curve of compound)
inactive: viability, T/C (compound 0.0316 µM) 98.3% and 100% and 107% | viability, T/C (compound 0.1 µM) 102% and 104% and 108% | viability, T/C (compound 0.316 µM) 88.4% and 106% and 96.5% | viability, T/C (compound 1 µM) 90.5% (2×) and 107% | viability, T/C (compound 3.16 µM) 97.1% and 101% and 97.2% | viability, T/C (compound 10 µM) 75% and 79.2% and 73.8%

O=C(C=Cn1cnc(-c2cc(C(F)(F)F)cc(C(F)(F)F)c2)n1)NNc1cnccn1 + CC(CO)NC(=O)c1cc(-c2ccc(Cl)cc2)nn(-c2cnn(C)c2)c1=O
< 5.52: pIC50 [1] | pIC50 [2] | pIC50 [3] | pIC50 [4] | pIC50 [5]
inactive: viability, T/C [36] 84% | viability, T/C [37] 84.2% | viability, T/C [38] 87.6% | viability, T/C [39] 69.3% | viability, T/C (second compound 0.1 µM, first compound 0.949 µM) 66.9% | viability, T/C (second compound 0.1 µM, first compound 3 µM) 62.5% | viability, T/C [40] 87.3% | viability, T/C [41] 93% | viability, T/C [42] 81% | viability, T/C [43] 76% | viability, T/C (second compound 0.316 µM, first compound 0.949 µM) 71.2% | viability, T/C (second compound 0.316 µM, first compound 3 µM) 66% | viability, T/C [44] 88.7% | viability, T/C [45] 103% | viability, T/C [46] 84% | viability, T/C [47] 73.8% | viability, T/C (second compound 1 µM, first compound 0.949 µM) 68.2% | viability, T/C (second compound 1 µM, first compound 3 µM) 65.8% | viability, T/C [48] 98.2% | viability, T/C [49] 81.4% | viability, T/C [50] 80.5% | viability, T/C [51] 70% | viability, T/C (second compound 3.16 µM, first compound 0.949 µM) 62.7% | viability, T/C (second compound 3.16 µM, first compound 3 µM) 63% | viability, T/C [52] 93.1% | viability, T/C [53] 80% | viability, T/C [54] 75.9% | viability, T/C [55] 77.9% | viability, T/C (second compound 10 µM, first compound 0.949 µM) 72.7% | viability, T/C (second compound 10 µM, first compound 3 µM) 72.7%

COc1cc(Nc2ncc3c(n2)-c2ccc(Cl)cc2C(c2c(F)cccc2OC)=NC3)ccc1C(=O)O
inactive: viability, T/C (compound 0.0316 µM) 81.1% and 79.8% and 91.3% | viability, T/C (compound 0.1 µM) 75% and 75.9% and 76% | viability, T/C (compound 0.316 µM) 68.9% and 62.2% and 64.4% | viability, T/C (compound 1 µM) 79.5% and 64.8% and 63% | viability, T/C (compound 3.16 µM) 62.2% and 61.8% and 58.2% | viability, T/C (compound 10 µM) 54% and 52% and 52.1%
< 5.00: pIC50 (curve of compound)

CC(CO)NC(=O)c1cc(-c2ccc(Cl)cc2)nn(-c2cnn(C)c2)c1=O (stereo unspecified)
< 5.00: pIC50 (compound alone, run of 05/31/2022)
inactive: viability, T/C (compound 0.1 µM) 98.9% [middle of 20 runs]

COc1cc(Nc2ncc3c(n2)-c2ccc(Cl)cc2C(c2c(F)cccc2OC)=NC3)ccc1C(=O)O + Cc1cncc(-c2nc(NCCc3c[nH]c4ccccc34)c3ncn(C(C)C)c3n2)c1
inactive: viability, T/C [6] 97.2% | viability, T/C [7] 83.4% | viability, T/C [8] 79.5% | viability, T/C [9] 71.2% | viability, T/C [10] 71.1% | viability, T/C [11] 58.4% | viability, T/C [12] 91.5% | viability, T/C [13] 87.9% | viability, T/C [14] 72.5% | viability, T/C [15] 76.8% | viability, T/C [16] 62.1% | viability, T/C [17] 62.3% | viability, T/C [18] 84.9% | viability, T/C [19] 81.9% | viability, T/C [20] 78.7% | viability, T/C [21] 72.6% | viability, T/C [22] 67.8% | viability, T/C [23] 65.9% | viability, T/C [24] 86.2% | viability, T/C [25] 76.9% | viability, T/C [26] 77.2% | viability, T/C [27] 73.2% | viability, T/C [28] 72.8% | viability, T/C [29] 65.9% | viability, T/C [30] 89.4% | viability, T/C [31] 74.1% | viability, T/C [32] 78.1% | viability, T/C [33] 70.7% | viability, T/C [34] 71% | viability, T/C [35] 75.2%
< 5.00: pIC50 [1] | pIC50 [2] | pIC50 [3] | pIC50 [4] | pIC50 [5]
